PubChem BioAssay (NCI)
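How tested: cells in 96-well plates exposed to compound for 48 hours at five concentrations. GI50 is the concentration that inhibits growth by half. TGI denotes the concentration required for complete inhibition of growth.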

What was measured:
Test in all cases: growth of human tumour cells (NCI), 48 h
[1] = test system: HS 578T breast
[2] = test system: PC-3 prostate
[3] = test system: HOP-62 NSCLC
[4] = test system: A549 NSCLC
[5] = test system: UO-31 renal
[6] = test system: NCI-H23 lung
[7] = test system: HT29 colon
[8] = test system: LOX IMVI melanoma
[9] = test system: HCT-116 colon
[10] = test system: HOP-92 NSCLC
[11] = test system: NCI-H522 lung
[12] = test system: SF-268 CNS
[13] = test system: KM12 colon
[14] = test system: UACC-257 melanoma
[15] = test system: 786-0 renal
[16] = test system: NCI-H226 lung
[17] = test system: CCRF-CEM leukemia
[18] = test system: NCI/ADR-RES ovarian
[19] = test system: M14 melanoma
[20] = test system: MDA-MB-435
[21] = test system: SK-OV-3 ovarian
[22] = test system: OVCAR-5 ovarian
[23] = test system: EKVX NSCLC
[24] = test system: HCT-15 colon
[25] = test system: U251 CNS
[26] = test system: K-562 leukemia
[27] = test system: ACHN renal
[28] = test system: DU-145 prostate
[29] = test system: OVCAR-4 ovarian
[30] = test system: OVCAR-8 ovarian
[31] = test system: MCF7 breast
[32] = test system: SNB-19 CNS
[33] = test system: CAKI-1 renal
[34] = test system: SF-295 CNS
[35] = test system: UACC-62 melanoma
[36] = test system: A498 renal
[37] = test system: SW-620 colon
[38] = test system: SR leukemia
[39] = test system: SF-539 CNS
[40] = test system: IGROV1 ovarian
[41] = test system: SNB-75 CNS
[42] = test system: HCC-2998 colon
[43] = test system: NCI-H460 lung
[44] = test system: RPMI-8226 leukemia
[45] = test system: MOLT-4 leukemia
[46] = test system: TK-10 renal
[47] = test system: RXF 393 renal
[48] = test system: SK-MEL-28 melanoma
[49] = test system: SK-MEL-2 melanoma
[50] = test system: SN12C renal
[51] = test system: MDA-MB-231 breast
[52] = test system: BT-549 breast
[53] = test system: HL-60(TB) leukemia
[54] = test system: COLO 205 colon
[55] = test system: SK-MEL-5 melanoma

**Q.** For `CCN1C(=O)N(CC)C2SC(N/N=C/c3ccc(OC)cc3)=NC21` (stereo not given), which GI50 [1] is on record?
**A.** 0.305 µM

**Q.** And the TGI [1]?
**A.** > 100 µM

**Q.** What about the GI50 [2] of the same molecule?
**A.** 0.449 µM

**Q.** What about the TGI [2] of the same molecule?
**A.** > 100 µM

**Q.** And the GI50 [3]?
**A.** 0.433 µM

**Q.** And the TGI [3]?
**A.** > 100 µM

**Q.** And the GI50 [4]?
**A.** 0.666 µM

**Q.** And the TGI [4]?
**A.** > 100 µM

**Q.** And the GI50 [5]?
**A.** 0.686 µM

**Q.** What about the TGI [5] of the same molecule?
**A.** > 100 µM

**Q.** What about the GI50 [6] of the same molecule?
**A.** 0.57 µM

**Q.** What about the TGI [6] of the same molecule?
**A.** > 100 µM

**Q.** What about the GI50 [7] of the same molecule?
**A.** 0.322 µM

**Q.** What about the TGI [7] of the same molecule?
**A.** 1.28 µM

**Q.** What about the GI50 [8] of the same molecule?
**A.** 0.564 µM

**Q.** And the TGI [8]?
**A.** > 100 µM

**Q.** What about the GI50 [9] of the same molecule?
**A.** 0.394 µM

**Q.** What about the TGI [9] of the same molecule?
**A.** > 40.3 µM

**Q.** What about the GI50 [10] of the same molecule?
**A.** 0.283 µM

**Q.** What about the TGI [10] of the same molecule?
**A.** 4.66 µM

**Q.** What about the GI50 [11] of the same molecule?
**A.** 0.235 µM

**Q.** And the TGI [11]?
**A.** 0.76 µM

**Q.** What about the GI50 [12] of the same molecule?
**A.** 2.51 µM

**Q.** And the TGI [12]?
**A.** > 100 µM

**Q.** And the GI50 [13]?
**A.** 0.457 µM

**Q.** What about the TGI [13] of the same molecule?
**A.** > 100 µM

**Q.** What about the GI50 [14] of the same molecule?
**A.** 2.32 µM

**Q.** And the TGI [14]?
**A.** > 100 µM

**Q.** And the GI50 [15]?
**A.** 0.849 µM

**Q.** What about the TGI [15] of the same molecule?
**A.** 51.7 µM

**Q.** What about the GI50 [16] of the same molecule?
**A.** 0.438 µM

**Q.** What about the TGI [16] of the same molecule?
**A.** > 72 µM

**Q.** And the GI50 [17]?
**A.** 0.334 µM

**Q.** What about the TGI [17] of the same molecule?
**A.** > 100 µM

**Q.** What about the GI50 [18] of the same molecule?
**A.** 0.395 µM

**Q.** And the TGI [18]?
**A.** > 100 µM

**Q.** And the GI50 [19]?
**A.** 0.322 µM

**Q.** And the TGI [19]?
**A.** 34.2 µM

**Q.** And the GI50 [20]?
**A.** 0.205 µM

**Q.** And the TGI [20]?
**A.** 0.522 µM

**Q.** And the GI50 [21]?
**A.** 0.453 µM

**Q.** And the TGI [21]?
**A.** > 100 µM

**Q.** What about the GI50 [22] of the same molecule?
**A.** 0.917 µM

**Q.** What about the TGI [22] of the same molecule?
**A.** > 100 µM

**Q.** What about the GI50 [23] of the same molecule?
**A.** 0.704 µM

**Q.** And the TGI [23]?
**A.** > 100 µM

**Q.** And the GI50 [24]?
**A.** 0.404 µM

**Q.** What about the TGI [24] of the same molecule?
**A.** > 100 µM

**Q.** What about the GI50 [25] of the same molecule?
**A.** 0.365 µM

**Q.** And the TGI [25]?
**A.** > 100 µM

**Q.** What about the GI50 [26] of the same molecule?
**A.** 0.35 µM

**Q.** And the TGI [26]?
**A.** > 100 µM

**Q.** And the GI50 [27]?
**A.** 0.811 µM

**Q.** What about the TGI [27] of the same molecule?
**A.** > 100 µM

**Q.** What about the GI50 [28] of the same molecule?
**A.** 0.478 µM

**Q.** What about the TGI [28] of the same molecule?
**A.** > 100 µM

**Q.** What about the GI50 [29] of the same molecule?
**A.** > 100 µM

**Q.** What about the TGI [29] of the same molecule?
**A.** > 100 µM

**Q.** What about the GI50 [30] of the same molecule?
**A.** 0.428 µM

**Q.** And the TGI [30]?
**A.** 6.61 µM

**Q.** And the GI50 [31]?
**A.** 0.381 µM

**Q.** And the TGI [31]?
**A.** > 100 µM

**Q.** And the GI50 [32]?
**A.** 0.464 µM

**Q.** And the TGI [32]?
**A.** > 100 µM

**Q.** And the GI50 [33]?
**A.** 0.425 µM

**Q.** And the TGI [33]?
**A.** > 100 µM

**Q.** And the GI50 [34]?
**A.** 0.317 µM

**Q.** And the TGI [34]?
**A.** > 83.8 µM

**Q.** And the GI50 [35]?
**A.** 0.39 µM

**Q.** And the TGI [35]?
**A.** > 100 µM

**Q.** What about the GI50 [36] of the same molecule?
**A.** 0.217 µM

**Q.** And the TGI [36]?
**A.** 0.685 µM

**Q.** What about the GI50 [37] of the same molecule?
**A.** 0.38 µM

**Q.** And the TGI [37]?
**A.** > 100 µM

**Q.** What about the GI50 [38] of the same molecule?
**A.** 0.308 µM

**Q.** And the TGI [38]?
**A.** > 100 µM

**Q.** And the GI50 [39]?
**A.** 0.269 µM

**Q.** What about the TGI [39] of the same molecule?
**A.** 0.857 µM

**Q.** What about the GI50 [40] of the same molecule?
**A.** 0.648 µM

**Q.** And the TGI [40]?
**A.** > 100 µM

**Q.** What about the GI50 [41] of the same molecule?
**A.** 0.321 µM

**Q.** What about the TGI [41] of the same molecule?
**A.** > 100 µM

**Q.** And the GI50 [42]?
**A.** 0.795 µM

**Q.** And the TGI [42]?
**A.** > 100 µM

**Q.** What about the GI50 [43] of the same molecule?
**A.** 0.357 µM

**Q.** What about the TGI [43] of the same molecule?
**A.** > 100 µM

**Q.** And the GI50 [44]?
**A.** 0.423 µM

**Q.** And the TGI [44]?
**A.** > 100 µM

**Q.** And the GI50 [45]?
**A.** 0.589 µM

**Q.** What about the TGI [45] of the same molecule?
**A.** > 100 µM

**Q.** What about the GI50 [46] of the same molecule?
**A.** > 100 µM

**Q.** And the TGI [46]?
**A.** > 100 µM

**Q.** What about the GI50 [47] of the same molecule?
**A.** 0.282 µM

**Q.** What about the TGI [47] of the same molecule?
**A.** > 100 µM

**Q.** What about the GI50 [48] of the same molecule?
**A.** > 100 µM

**Q.** What about the TGI [48] of the same molecule?
**A.** > 100 µM

**Q.** What about the GI50 [49] of the same molecule?
**A.** 0.504 µM

**Q.** What about the TGI [49] of the same molecule?
**A.** > 100 µM

**Q.** And the GI50 [50]?
**A.** 0.594 µM

**Q.** What about the TGI [50] of the same molecule?
**A.** > 100 µM

**Q.** And the GI50 [51]?
**A.** 0.868 µM

**Q.** What about the TGI [51] of the same molecule?
**A.** > 100 µM

**Q.** What about the GI50 [52] of the same molecule?
**A.** 0.322 µM

**Q.** And the TGI [52]?
**A.** 1.32 µM

**Q.** What about the GI50 [53] of the same molecule?
**A.** 0.281 µM

**Q.** And the TGI [53]?
**A.** 9.06 µM

**Q.** What about the GI50 [54] of the same molecule?
**A.** 0.273 µM

**Q.** And the TGI [54]?
**A.** 0.751 µM

**Q.** And the GI50 [55]?
**A.** 0.462 µM

**Q.** And the TGI [55]?
**A.** 3.01 µM
